Test results published in publication PMC11790914, “Chemogenomics for steroid hormone receptors (NR3)” (Communications Chemistry, 2025).
Values joined by “and” are separate entries in the source; they are usually repeats but may differ in a detail not shown here. Equal values may be shown once.

Tests used:
HEK293T cells [1] = test: Cytotoxicity: necrosis induction (red fluorescent dye for permeable plasma membranes); format: cell-based; conditions: 1 µM, 24 h, necrotic cell count normalized to 0.1% DMSO, single replicates;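 note: compounds applied in DMEM high glucose with 0.1% FCS and 0.1% DMSO, necrotic HEK293T cells counted by red staining of cells whose plasma membranes had become permeable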
Experimental: Cells were incubated with the test compounds at the indicated concentrations solubilized with 0.1% DMSO for 24 h. […] Necrotic cells were detected with a red fluorescent dye that labels cells with permeable plasma membranes after 24 h treatment and the necrotic cell count was normalized to 0.1% DMSO treated cells (n = 4). e NR family selectivity profiling of NR3 CG compound candidates in uniform Gal4-hybrid reporter gene assays for selected NR representing the NR1, NR2, NR4 and NR5 families.
HEK293T cells (German Collection of Microorganisms and Cell Culture GmbH, DSMZ; #ACC305) were cultured in DMEM high glucose, supplemented with 10% fetal calf serum (FCS), sodium pyruvate (1 mM), penicillin (100 µ/mL) and streptomycin (100 µg/mL) at 37 °C and 5% (v/v) CO2, and seeded in pre-coated (10 µg/mL collagen G solution (Merck KgaA; #L7213) for 30 min at 37 °C) 96-well plates (2 × 10^5 cells per well). After 24 h, the cells were treated with the respective NR3 CG compound candidate at the recommended concentration, bexarotene (100 µM) or doxorubicin (30 µM) as positive controls in DMEM high glucose supplemented with 0.1% FCS, penicillin (100 µ/mL), streptomycin (100 µg/mL) and 0.1% DMSO, or 0.1% DMSO alone as an untreated control. Each sample was prepared in at least four biologically independent replicates. […] Before drug administration, after the first medium exchange, 24 h after drug administration, and after fluorescence imaging cell confluence was assessed using the Tecan Spark Cyto, to account for changes in cell confluence due to drug administration and cell handling. Compound effects on cell confluence, apoptosis, metabolic activity and necrosis were normalized to the vehicle control of each biological replicate individually.

ABL1 = molecular target: T1, ABL1 (Homo sapiens, UniProt P00519); test: Liability panel screening by DSF: ABL1; format: binding; conditions: DSF, 20 µM, n=2; read-out: Mean ΔTM ABL1
T1 construct: made in house
T1 sequence (P00519 whole entry, species assumed): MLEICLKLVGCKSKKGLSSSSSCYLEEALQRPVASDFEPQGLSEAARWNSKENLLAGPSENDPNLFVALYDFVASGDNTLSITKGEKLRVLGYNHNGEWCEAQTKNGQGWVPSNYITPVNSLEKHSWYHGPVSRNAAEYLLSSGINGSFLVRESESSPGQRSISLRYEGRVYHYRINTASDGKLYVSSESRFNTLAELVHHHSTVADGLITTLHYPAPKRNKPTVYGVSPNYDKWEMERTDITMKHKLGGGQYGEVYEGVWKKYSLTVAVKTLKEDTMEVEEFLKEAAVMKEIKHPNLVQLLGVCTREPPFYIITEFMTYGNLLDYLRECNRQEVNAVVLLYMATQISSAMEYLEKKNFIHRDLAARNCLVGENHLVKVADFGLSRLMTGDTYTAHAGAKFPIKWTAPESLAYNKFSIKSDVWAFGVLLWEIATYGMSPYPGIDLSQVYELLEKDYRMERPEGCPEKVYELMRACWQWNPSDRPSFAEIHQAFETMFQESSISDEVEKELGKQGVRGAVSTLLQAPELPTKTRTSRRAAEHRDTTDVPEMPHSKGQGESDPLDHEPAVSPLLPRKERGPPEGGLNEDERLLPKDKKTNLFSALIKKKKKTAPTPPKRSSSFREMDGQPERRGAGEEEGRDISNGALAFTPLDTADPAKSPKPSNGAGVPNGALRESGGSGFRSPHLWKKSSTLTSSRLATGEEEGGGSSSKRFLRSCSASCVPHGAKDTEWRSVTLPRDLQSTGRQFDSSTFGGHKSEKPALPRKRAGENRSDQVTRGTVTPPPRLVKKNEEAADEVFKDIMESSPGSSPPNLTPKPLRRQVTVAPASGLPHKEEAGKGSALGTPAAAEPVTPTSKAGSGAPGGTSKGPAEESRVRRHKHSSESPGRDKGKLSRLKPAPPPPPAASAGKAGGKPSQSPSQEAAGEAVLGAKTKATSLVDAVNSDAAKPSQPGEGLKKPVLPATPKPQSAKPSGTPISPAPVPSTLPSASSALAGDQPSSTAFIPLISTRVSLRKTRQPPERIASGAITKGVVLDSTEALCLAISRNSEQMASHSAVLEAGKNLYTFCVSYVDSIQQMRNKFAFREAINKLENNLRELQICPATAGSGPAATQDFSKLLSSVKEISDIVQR
How it was run: (§1)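 Thermal shift: in-house recombinant protein at 2 µM in 10 mM HEPES pH 7.5 with 500 mM NaCl, SYPRO Orange 1:1000, heated at 3 °C/min to 85 °C in technical duplicates. Tm is the Boltzmann inflection point, reported as ∆Tm in K.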

AURKA = molecular target: T2, AURKA (Homo sapiens, UniProt O14965); test: Liability panel screening by DSF: AURKA; format: binding; conditions: DSF, 20 µM, n=2; read-out: Mean ΔTM AURKA
T2 construct: made in house
T2 sequence (O14965 1-403): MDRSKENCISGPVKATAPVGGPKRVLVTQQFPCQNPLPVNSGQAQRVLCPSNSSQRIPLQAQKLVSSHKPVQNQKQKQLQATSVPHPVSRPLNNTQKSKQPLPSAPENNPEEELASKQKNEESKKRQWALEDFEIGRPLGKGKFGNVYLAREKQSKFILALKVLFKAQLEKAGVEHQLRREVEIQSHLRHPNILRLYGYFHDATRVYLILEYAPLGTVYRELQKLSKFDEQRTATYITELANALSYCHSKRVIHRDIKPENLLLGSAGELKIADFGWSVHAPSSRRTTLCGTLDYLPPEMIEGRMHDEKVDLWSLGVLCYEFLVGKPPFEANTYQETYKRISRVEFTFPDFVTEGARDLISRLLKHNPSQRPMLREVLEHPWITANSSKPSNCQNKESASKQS
How it was run: as §1

CDK2 = molecular target: T3, CDK2 (Homo sapiens, UniProt P24941); test: Liability panel screening by DSF: CDK2; format: binding; conditions: DSF, 20 µM, n=2; read-out: Mean ΔTM CDK2
T3 construct: made in house
How it was run: as §1

FGFR3 = molecular target: T4, FGFR3 (Homo sapiens, UniProt P22607); test: Liability panel screening by DSF: FGFR3; format: binding; conditions: DSF, 20 µM, n=2; read-out: Mean ΔTM FGFR3
T4 construct: made in house
T4 sequence (P22607 23-806, species assumed): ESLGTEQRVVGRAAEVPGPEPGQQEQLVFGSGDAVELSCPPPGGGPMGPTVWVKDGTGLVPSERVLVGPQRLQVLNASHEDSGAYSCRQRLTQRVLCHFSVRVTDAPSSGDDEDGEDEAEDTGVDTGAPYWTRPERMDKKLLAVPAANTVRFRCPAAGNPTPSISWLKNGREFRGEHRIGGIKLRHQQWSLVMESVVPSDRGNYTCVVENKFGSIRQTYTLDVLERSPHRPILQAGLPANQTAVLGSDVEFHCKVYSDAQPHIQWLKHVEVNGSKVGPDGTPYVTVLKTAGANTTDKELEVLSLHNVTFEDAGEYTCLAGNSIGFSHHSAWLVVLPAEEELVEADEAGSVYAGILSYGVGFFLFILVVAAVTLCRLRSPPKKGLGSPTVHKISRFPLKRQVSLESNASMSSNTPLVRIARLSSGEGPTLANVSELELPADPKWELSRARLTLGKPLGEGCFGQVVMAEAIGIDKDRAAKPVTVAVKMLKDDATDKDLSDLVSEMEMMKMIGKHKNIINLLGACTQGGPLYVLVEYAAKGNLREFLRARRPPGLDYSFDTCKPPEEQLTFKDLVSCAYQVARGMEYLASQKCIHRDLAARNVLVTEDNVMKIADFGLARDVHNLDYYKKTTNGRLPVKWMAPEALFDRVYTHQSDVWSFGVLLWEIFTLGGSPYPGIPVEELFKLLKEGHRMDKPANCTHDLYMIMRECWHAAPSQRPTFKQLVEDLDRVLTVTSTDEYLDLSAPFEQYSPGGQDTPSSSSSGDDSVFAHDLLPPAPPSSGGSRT
How it was run: as §1

GSK3B = molecular target: T5, GSK3B (Homo sapiens, UniProt P49841); test: Liability panel screening by DSF: GSK3B; format: binding; conditions: DSF, 20 µM, n=2; read-out: Mean ΔTM GSK3B
T5 construct: made in house
T5 sequence (P49841 whole entry, species assumed): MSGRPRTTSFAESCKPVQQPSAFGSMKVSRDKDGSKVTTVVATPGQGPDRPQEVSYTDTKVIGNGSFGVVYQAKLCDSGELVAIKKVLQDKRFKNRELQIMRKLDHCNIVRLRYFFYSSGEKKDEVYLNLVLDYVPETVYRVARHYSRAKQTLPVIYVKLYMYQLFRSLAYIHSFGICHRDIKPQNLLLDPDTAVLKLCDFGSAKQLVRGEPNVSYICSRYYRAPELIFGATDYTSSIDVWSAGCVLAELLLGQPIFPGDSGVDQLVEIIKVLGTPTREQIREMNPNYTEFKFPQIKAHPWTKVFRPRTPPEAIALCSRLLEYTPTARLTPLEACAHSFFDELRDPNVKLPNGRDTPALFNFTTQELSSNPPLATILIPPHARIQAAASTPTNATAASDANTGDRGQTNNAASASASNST

BRD4 = molecular target: T6, BRD4 (Homo sapiens, UniProt O60885); test: Liability panel screening by DSF: BRD4; format: binding; conditions: DSF, 20 µM, n=2; read-out: Mean ΔTM BRD4
T6 construct: This panel comprised ten highly ligandable kinases and bromodomains; made in house
How it was run: as §1

BRPF1 = molecular target: T7, BRPF1 (Homo sapiens, UniProt P55201); test: Liability panel screening by DSF: BRPF1; format: binding; conditions: DSF, 20 µM, n=2; read-out: Mean ΔTM BRPF1
T7 construct: This panel comprised ten highly ligandable kinases and bromodomains; made in house
T7 sequence (P55201 628-732 limits assumed): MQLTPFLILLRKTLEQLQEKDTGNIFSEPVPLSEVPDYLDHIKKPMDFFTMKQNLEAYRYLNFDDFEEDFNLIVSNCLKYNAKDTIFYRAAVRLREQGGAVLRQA
How it was run: as §1

CSNK1D = molecular target: T8, CSNK1D (Homo sapiens, UniProt P48730); test: Liability panel screening by DSF: CSNK1D; format: binding; conditions: DSF, 20 µM, n=2; read-out: Mean ΔTM CSNK1D
T8 construct: made in house
T8 sequence (P48730 whole entry, species assumed): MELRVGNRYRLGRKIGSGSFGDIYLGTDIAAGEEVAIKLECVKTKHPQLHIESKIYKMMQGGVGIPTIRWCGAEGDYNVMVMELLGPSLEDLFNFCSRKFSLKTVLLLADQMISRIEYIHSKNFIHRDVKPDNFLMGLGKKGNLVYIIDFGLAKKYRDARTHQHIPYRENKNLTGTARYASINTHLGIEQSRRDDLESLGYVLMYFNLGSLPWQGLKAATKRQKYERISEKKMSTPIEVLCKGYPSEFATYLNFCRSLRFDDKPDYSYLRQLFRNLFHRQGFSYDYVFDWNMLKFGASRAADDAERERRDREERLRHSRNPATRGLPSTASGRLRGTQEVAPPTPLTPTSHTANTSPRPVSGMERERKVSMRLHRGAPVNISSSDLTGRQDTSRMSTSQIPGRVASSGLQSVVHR
How it was run: as §1

MAPK1 = molecular target: T9, MAPK1 (Homo sapiens, UniProt P28482); test: Liability panel screening by DSF: MAPK1; format: binding; conditions: DSF, 20 µM, n=2; read-out: Mean ΔTM MAPK1
T9 construct: made in house
T9 sequence (P28482 whole entry, species assumed): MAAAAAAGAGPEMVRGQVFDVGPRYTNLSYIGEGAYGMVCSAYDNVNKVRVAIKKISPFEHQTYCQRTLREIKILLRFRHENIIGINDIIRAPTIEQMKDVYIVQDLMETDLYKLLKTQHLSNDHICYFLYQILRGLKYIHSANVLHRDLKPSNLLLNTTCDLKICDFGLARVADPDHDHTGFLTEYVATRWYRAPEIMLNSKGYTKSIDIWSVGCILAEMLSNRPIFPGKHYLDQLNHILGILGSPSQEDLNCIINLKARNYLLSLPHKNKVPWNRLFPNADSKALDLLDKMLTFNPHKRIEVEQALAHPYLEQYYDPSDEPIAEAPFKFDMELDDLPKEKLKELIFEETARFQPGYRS
How it was run: as §1

TRIM24 = molecular target: T10, TRIM24 (Homo sapiens, UniProt O15164); test: Liability panel screening by DSF: TRIM24; format: binding; conditions: DSF, 20 µM, n=2; read-out: Mean ΔTM TRIM24
T10 construct: This panel comprised ten highly ligandable kinases and bromodomains; made in house
T10 sequence (O15164 899-1004 limits assumed): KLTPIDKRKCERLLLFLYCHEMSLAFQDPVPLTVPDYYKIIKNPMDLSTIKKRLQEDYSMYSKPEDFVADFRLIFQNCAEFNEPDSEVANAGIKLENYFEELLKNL
How it was run: as §1

[2] = tested on: NF-κB activity in HEK293 NF-κB reporter cells; test: NF-kB activity assay (GFP reporter, ionomycin/PMA); format: cell-based; conditions: for Mean NFκB response: n=3; for NF-κB activity (inflammatory response to ionomycin/PMA): HEK293 NF-κB reporter cells, compounds at recommended concentrations, imaged over 24 h, n = 3
How it was run: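 HEK293 NF-κB GFP reporter cells given compound in 0.1% DMSO for 4 h, then stimulated with ionomycin 100 ng/mL plus PMA 10 ng/mL. Imaged every 90 min over 24 h; GFP-positive cell count normalized to confluence, three independent biological replicates.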

[3] = tested on: ATF6 activity in Hela ATF6 reporter cells; test: Endoplasmic reticulum stress assay (ATF6 Renilla luciferase reporter, tunicamycin); format: cell-based; conditions: Homo sapiens, HeLa, 1 µM, single replicates n=1 to n=5; read-out: ER stress [rel. ATF6 activity]
How it was run: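 HeLa ATF6 Renilla reporter cells were pretreated 4 h with compounds in 0.1% DMSO, then stimulated with tunicamycin (100 ng/mL) for 18 h. Renilla luminescence (DualGlo) was normalized to 0.1% DMSO control; five independent experiments.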

NR3A1 (ERα) = conditions: cited from earlier work
NR3A2 (ERβ) = conditions: cited from earlier work
HEK293T cells [4] = test: Cytotoxicity: apoptosis induction (caspase-3/7 DEVD fluorogenic DNA dye); conditions: 1 µM; HEK293T, 24 h; apoptotic cell count normalized to 0.1% DMSO; single replicates
[5] = known off-target outside the NR family at the recommended concentration; ref Supplementary Table 1 (superscript references); cited from earlier work
HEK293T cells [6] = test: Cytotoxicity: metabolic activity (WST-8 / CCK-8 assay); conditions: 1 µM; HEK293T, 24 h; WST-8; normalized to 0.1% DMSO; single replicates
HEK293T cells [7] = test: Cytotoxicity: growth-rate (change in confluence over 24 h); conditions: 1 µM, normalized to 0.1% DMSO control, single replicates (n=1...)

Row | Compound | Necrosis induction [NI] (HEK293T cells [1]) | ΔTm at 20 µM (ABL1) | ΔTm at 20 µM (AURKA) | ΔTm at 20 µM (CDK2) | ΔTm at 20 µM (FGFR3) | ΔTm at 20 µM (GSK3B) | ΔTm at 20 µM (BRD4) | ΔTm at 20 µM (BRPF1) | ΔTm at 20 µM (CSNK1D) | ΔTm at 20 µM (MAPK1) | Mean NFκB response ([2]; 1 µM, 1,5 h) | Mean NFκB response ([2]; 1 µM, 4,5 h) | Mean NFκB response ([2]; 1 µM, 7,5 h) | Mean NFκB response ([2]; 1 µM, 10,5 h) | Mean NFκB response ([2]; 1 µM, 13,5 h) | Mean NFκB response ([2]; 1 µM, 16,6 h) | Mean NFκB response ([2]; 1 µM, 19,5 h) | Mean NFκB response ([2]; 1 µM, 22,5 h) | Mean NFκB response ([2]; 1 µM, 3 h) | Mean NFκB response ([2]; 1 µM, 6 h) | also measured
1 | Cc1c(-c2ccc(O)cc2)n(Cc2ccc(OCCN3CCCCCC3)cc2)c2ccc(O)cc12 [Bazedoxifene] | 1.13 and 0.86 and 0.78 and 1.09 | -0.21 °C | 0.09 °C | -0.64 °C | -0.69 °C | 0.0162 °C | 0.43 °C | -0.07 °C | 0.42 °C | 0.08 °C | 2824.44 GFP+-cells/confluence ∙ 1000 | 3791.70 GFP+-cells/confluence ∙ 1000 | 7416.63 GFP+-cells/confluence ∙ 1000 | 14689.03 GFP+-cells/confluence ∙ 1000 | 19525.92 GFP+-cells/confluence ∙ 1000 | 23266.53 GFP+-cells/confluence ∙ 1000 | 26260.00 GFP+-cells/confluence ∙ 1000 | 28446.67 GFP+-cells/confluence ∙ 1000 | 3117.94 GFP+-cells/confluence ∙ 1000 | 5066.30 GFP+-cells/confluence ∙ 1000 | ΔTm at 20 µM (TRIM24): -2.05 °C; Mean NFκB response ([2]; 1 µM, 9 h): 11293.98 GFP+-cells/confluence ∙ 1000; Mean NFκB response ([2]; 1 µM, 12 h): 17230.27 GFP+-cells/confluence ∙ 1000; Mean NFκB response ([2]; 1 µM, 15 h): 21680.82 GFP+-cells/confluence ∙ 1000; Mean NFκB response ([2]; 1 µM, 18 h): 24611.25 GFP+-cells/confluence ∙ 1000; Mean NFκB response ([2]; 1 µM, 21 h): 27073.33 GFP+-cells/confluence ∙ 1000; Mean NFκB response ([2]; 1 µM, 24 h): 29033.33 GFP+-cells/confluence ∙ 1000; NF-κB activity (inflammatory response to ionomycin/PMA) [2]: reducing the inflammatory response; activity at 1 µM [3]: 100%; EC50 (NR3A1 (ERα); read-out: Potency [nM] EC50, NR3A1 (ERα)): 26 ± 14 nM; EC50 (NR3A2 (ERβ); (lit.), ref Supplementary Table 1, read-out: Potency [nM] EC50, NR3A2 (ERβ)): 99 ± 53 nM; Apoptosis induction [AI] (HEK293T cells [4]): 0.65 and 1.17 and 0.76 and 1.01 and 0.89 and 1.49
2 | C[C@]12CC[C@@H]3c4ccc(O)cc4C[C@@H](CCCCCCCCC[S+]([O-])CCCC(F)(F)C(F)(F)F)[C@H]3[C@@H]1CC[C@@H]2O (stereo partly shown) [Fulvestrant] | 0.62 and 0.70 and 0.56 and 0.98 | -4.09 °C | -0.16 °C | 0 °C | -3.24 °C | 0.72 °C | -2.93 °C | 0 °C | -4.77 °C | -12 °C | 2679.37 GFP+-cells/confluence ∙ 1000 | 3148.36 GFP+-cells/confluence ∙ 1000 | 4671.22 GFP+-cells/confluence ∙ 1000 | 6295.62 GFP+-cells/confluence ∙ 1000 | 7325.42 GFP+-cells/confluence ∙ 1000 | 8293.33 GFP+-cells/confluence ∙ 1000 | 8696.67 GFP+-cells/confluence ∙ 1000 | 9540.00 GFP+-cells/confluence ∙ 1000 | 2744.06 GFP+-cells/confluence ∙ 1000 | 3642.03 GFP+-cells/confluence ∙ 1000 | Mean NFκB response ([2]; 1 µM, 9 h): 5613.40 GFP+-cells/confluence ∙ 1000; Mean NFκB response ([2]; 1 µM, 12 h): 7011.92 GFP+-cells/confluence ∙ 1000; Mean NFκB response ([2]; 1 µM, 15 h): 8097.95 GFP+-cells/confluence ∙ 1000; Mean NFκB response ([2]; 1 µM, 18 h): 8436.67 GFP+-cells/confluence ∙ 1000; Mean NFκB response ([2]; 1 µM, 21 h): 9413.33 GFP+-cells/confluence ∙ 1000; Mean NFκB response ([2]; 1 µM, 24 h): 10080.00 GFP+-cells/confluence ∙ 1000; NF-κB activity (inflammatory response to ionomycin/PMA) [2]: reducing the inflammatory response; activity at 1 µM [3]: 89%; rel. activity from literature, NR3A1 (ERα): % ERα remaining (NR3A1 (ERα); ERα remaining (degrader), ref Supplementary Table 1): 18%; IC50 (NR3A2 (ERβ); (lit.), ref Supplementary Table 1, read-out: Potency [nM] IC50, NR3A2 (ERβ)): 4 nM; rel. activity from literature, NR3A2 (ERβ): % rem. act. of estradiol (NR3A2 (ERβ); rem. act. of estradiol): 9%; Other off-target at recom. conc. [5]: sEH; Metabolic activity [MA] (HEK293T cells [6]): 0.95 (2×) and 1.00 and 1.04 and 1.03 and 0.99 and 1.20 (2×); Growth rate [GR] (HEK293T cells [7]): 0.67 and 2.29 and 0.97 and 0.95 and 0.64 and 0.78 and 0.76 and 0.84 and 1.55 and 3.07; Apoptosis induction [AI] (HEK293T cells [4]): 0.62 (2×) and 0.98 and 0.59 and 0.64 and 0.41
